# Results from a melting point compilation (Tetko et al.; mined from patent text by program, amines drawn as free bases though some values may be those of a salt).
row,Structure (SMILES),melting point [°C]
1,Cc1ccc(-n2c(-c3ccc(Br)cc3)nc3c4ccccc4c4ccccc4c32)cc1,236
2,CCc1ccc(Cn2cc(-c3cn(C4CC(O)C(CO)O4)c(=O)[nH]c3=O)nn2)cc1 (stereo not given),201
3,CC(=O)NC(C(=O)Nc1ccc(C(=O)O)cc1)c1ccc2c(c1)C(C)(C)CCC2(C)C (stereo not given),258 to 259
4,O=C1[C@H]2CCC[C@H]2N(C(=O)CBr)c2ccccc2N1Cc1ccccc1F (relative stereo),198 to 200
5,Cc1nc2cc(C(=O)NC3CC3)c(NC(=O)c3cc(C(F)(F)F)nn3-c3ncccc3Cl)c(Cl)c2nc1C,255 to 258
6,CC(C)(CO)NC(=O)c1ccccc1,80 to 82
7,O=C(NC(C(=O)OCc1ccccc1)C(=O)C1CC1)c1ccc(F)cc1 (stereo not given),94.5 to 96
8,CCC1=C(c2cccc(C(F)(F)F)c2)n2ncc(C#N)c2N(C(=O)CCl)C1,150 to 152
9,CCOc1ccccc1C(=O)C=Cc1ccc2ccccc2c1,96 to 97
10,O=C(C=Cc1ccccc1)NNC(=O)c1ccccc1O,271
11,CSC(C)=NOC(=O)NCSN(C(C)(C)C)P1(=O)OCC(C)(C)CO1,134
12,C=Cc1cc(CNC(=O)C(C)=Cc2ccc(C(C)(C)C)cc2)cc(F)c1NS(C)(=O)=O,136 to 138
13,Cc1cc(=O)oc2nn(Cc3cccnc3)c(C)c12,191 to 193
14,Cc1nc(N2CCN(CC3CC3)C2=O)sc1C(=O)NCc1ncco1,172 to 174
15,Cc1cccc(N=C2NCCN2)c1,115
16,COCC(=O)Nc1c(C(=O)c2cccc(C)c2)[nH]c2cc(Cl)ccc12,155 to 157
17,CC(C)(C)CC(C)(C)n1scc(Cl)c1=O,137 to 140
18,CCOc1ccc(C=NOCCO)cn1,52 to 54
19,O=C(Nc1ccccc1)N1CC(Oc2ccc(C(F)(F)F)cc2)C1,174 to 176
20,O=C(NCCCO)c1cc2ccccc2[nH]1,152 to 156
21,CCn1ncc2c3[nH]nc4c3c(nc21)CCc1ccccc1-4,229 to 231
22,CCN(CC)c1ccc2cc(C(=O)O)c(=O)oc2c1,227 to 229
23,CCOc1cc(CCC2OC(=O)NC2=O)ccc1OCc1ccccc1 (stereo not given),143 to 144
24,CC(OC1CCCCO1)C(O)(Cn1cncn1)c1ccc(F)cc1F (stereo not given),93 to 95
25,NC(=O)Cn1cc(C(=O)c2ccn3c2CSC3c2cccnc2)c2ccc(-c3ccc(F)cc3)cc21 (stereo not given),215 to 225

row,Structure (SMILES),melting point [°C]
1,CCC(C)(C)c1cc(-c2c[nH]c(C=C3SC(N4CCOCC4)=NC3=O)c2)ccc1O,314
2,O=C1CN2CCC1CC2,58
3,O=[N+]([O-])c1c(NCCCO)cc(Cl)cc1NCCCO,127
4,Nc1c(-c2nc(-c3ccco3)n[nH]2)cnn1CCc1ccccc1,175 to 176
5,OC(CNCc1ccccc1)COc1ccc(CCOCC2CC2)cc1 (stereo not given),75 to 76
6,Cc1cnc(N2CCc3ccccc3CC2)c([N+](=O)[O-])c1,87 to 88
7,Cc1nc(-n2ccccc2=O)sc1C(=O)NCc1cccnc1,218 to 220
8,O=c1[nH]c2cccnc2n1-c1ccccn1,235 to 238
9,Nc1c(F)c(-c2ccc(C(F)(F)F)nc2)nc(C=O)c1Cl,147 to 149
10,COC(=O)CC(c1ccc(F)cc1)C(C(=O)OC)C(=O)OC (stereo not given),75 to 76
11,CCOC(=O)C1CN2c3c(cc4ccccc4c3CCC2C)C1=O (stereo not given),178 to 180
12,O=C1c2ccccc2C(=O)c2sc(-c3ccc(F)cc3F)nc21,> 260
13,Nc1ccc(CN2CCC(=O)C(=C3SC=CS3)C2=O)cc1,156 to 158
14,Cc1cc2c(s1)Oc1ccc(F)cc1NC2=O,274 to 275
15,COC(=O)C[C@H](CCC(=O)OCc1ccccc1)NC(=O)OC(C)(C)C,97 to 98
16,O=C1c2nccc(Cl)c2C(=O)c2c(-c3ccccc3NC(=O)C(F)(F)F)ccnc21,152
17,O=C(O)CCc1ccc2c(c1)Cc1ccccc1CO2,181 to 183
18,O=C(Nc1cc(Cl)ccc1C(=O)O)NS(=O)(=O)c1ccc(OCCN2CCN(c3ccccc3)CC2)cc1,177 to 179
19,NC(CSc1nc(NCc2ccc3c(c2)OCO3)cc(-c2ccccc2)n1)=NO,160 to 163
20,CCN(CC)C(=O)c1cc[nH]c1C,120 to 121
21,CC(C)Oc1c(F)c(F)cc2c(=O)c(C(=O)O)cn(-c3cc(N)c(F)cc3F)c12,217 to 222
22,NNc1ccc(Cl)cn1,116 to 122
23,C=CCn1c(=O)c2c(nc(/C=C/c3ccc(OC(C)=O)c(OC)c3)n2C)n(CC=C)c1=O,207 to 208
24,COc1cc(OC)nc(NC(=O)NS(=O)(=O)c2ccccc2C=O)n1,180
25,O=C(O)Cc1cccc(CCNC(=O)C2Cc3ccccc3N2S(=O)(=O)c2ccc(-c3ccccc3C(F)(F)F)cc2)c1 (stereo not given),78
